From patent US20160264536A1, “HETEROCYCLIC COMPOUND” (Takeda Pharmaceutical Company Limited, priority 2013, published 2016)

molecular target: T1, human PDE2A3 enzyme (Homo sapiens, UniProt O00408); assay: PDE enzyme inhibitory assay (SPA, [3H]cGMP substrate); type: biochemical; conditions: compound 1 μM, substrate [3H]cGMP 77 nM, read-out: inhibitory rate (%) (1 μM)
T1 construct: Human PDE2A3 full-length gene was transduced into Sf9; His-tag; made in house; host or cells: Sf9 insect cells
Method: PDE Enzyme Inhibitory Assay
Human PDE2A3 full-length gene was transduced into Sf9, and human PDE2A3 enzyme was purified by His-tag affinity column and gel filtration. The enzyme was stored at −70° C. until use. PDE activity was measured by using a SPA (Scintillation Proximity Assay) (GE Healthcare). To evaluate the inhibitory activity of the compound, 10 μl of serial diluted compounds were reacted with 20 μl of PDE enzyme in assay buffer (50 mM HEPES-NaOH, 8.3 mM MgCl2, 1.7 mM EGTA, 0.1% BSA (pH 7.4)) for 30 min at room temperature. Final concentration of DMSO in the reaction solution was 1%. Compounds were tested in duplicate in 96-well half-area plates (Corning) or 384-well OptiPlate (PerkinElmer). To start the reaction, 10 μl of substrate [^3H]cGMP (final concentration 77 nM, PerkinElmer) was added to a total volume of 40 μl. After reaction for 60 min at room temperature, 20 μl of 20 mg/mL yttrium SPA beads containing zinc sulfate was added to terminate the reaction. After being settled for further 1 hour, the assay plates were counted in a scintillation counter (PerkinElmer) to allow calculation of inhibition rate. Inhibition rate was calculated on the basis of 0% control wells with enzyme and DMSO, and 100% control wells without enzyme.

T1 sequence (O00408 whole entry): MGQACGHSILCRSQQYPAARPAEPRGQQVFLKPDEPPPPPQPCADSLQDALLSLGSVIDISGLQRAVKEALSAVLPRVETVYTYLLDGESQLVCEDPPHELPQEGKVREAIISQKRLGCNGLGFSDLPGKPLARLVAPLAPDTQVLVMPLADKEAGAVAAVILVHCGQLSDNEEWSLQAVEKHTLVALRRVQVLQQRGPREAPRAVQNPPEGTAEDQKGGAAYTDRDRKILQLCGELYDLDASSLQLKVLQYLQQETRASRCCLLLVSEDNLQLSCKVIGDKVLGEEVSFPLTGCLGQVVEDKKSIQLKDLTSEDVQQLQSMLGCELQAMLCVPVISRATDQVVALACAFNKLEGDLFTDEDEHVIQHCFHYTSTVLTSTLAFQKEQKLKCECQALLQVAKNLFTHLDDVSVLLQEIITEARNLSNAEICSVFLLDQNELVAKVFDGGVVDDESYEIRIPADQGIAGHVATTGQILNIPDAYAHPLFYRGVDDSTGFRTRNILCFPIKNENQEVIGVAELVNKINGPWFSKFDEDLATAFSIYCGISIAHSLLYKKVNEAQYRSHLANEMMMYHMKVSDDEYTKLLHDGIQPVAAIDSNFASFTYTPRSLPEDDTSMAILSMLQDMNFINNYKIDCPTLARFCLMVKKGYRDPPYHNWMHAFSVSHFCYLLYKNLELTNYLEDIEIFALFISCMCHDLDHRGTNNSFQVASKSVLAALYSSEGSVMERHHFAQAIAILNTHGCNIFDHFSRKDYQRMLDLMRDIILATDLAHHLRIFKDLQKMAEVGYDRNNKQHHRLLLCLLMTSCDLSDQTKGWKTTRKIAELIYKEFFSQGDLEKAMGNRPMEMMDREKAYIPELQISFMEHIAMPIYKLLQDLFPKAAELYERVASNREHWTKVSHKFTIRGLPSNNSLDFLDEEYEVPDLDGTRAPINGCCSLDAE

| Structure (SMILES) | inhibition at 1 µM [%] |
| --- | --- |
| COC[C@@H](NC(=O)c1cc(=O)[nH]c(N(C)C)n1)c1ccc(OC(F)(F)F)cc1 [Example 20, 2-(dimethylamino)-N-((1S)-2-methoxy-1-(4-(trifluoromethoxy)phenyl)ethyl)-6-oxo-1,6-dihydropyrimidine-4-carboxamide] | 98 |
| COC[C@@H](NC(=O)c1cc(=O)[nH]c(N(C)C)n1)c1ccc(OC(F)(F)F)c(F)c1 [Example 33, 2-(dimethylamino)-N-((1S)-1-(3-fluoro-4-(trifluoromethoxy)phenyl)-2-methoxyethyl)-6-oxo-1,6-dihydropyrimidine-4-carboxamide] | 99 |
| COC[C@@H](NC(=O)c1cc(=O)[nH]c(N2CC[C@H](OC)C2)n1)c1ccc(OC(F)(F)F)cc1 [Example 45, 2-((3S)-3-methoxypyrrolidin-1-yl)-N-((1S)-2-methoxy-1-(4-(trifluoromethoxy)phenyl)ethyl)-6-oxo-1,6-dihydropyrimidine-4-carboxamide] | 97 |
| COC[C@@H](NC(=O)c1cc(=O)[nH]c(N2CCCC2)n1)c1ccc(OC(F)(F)F)cc1 [Example 52, N-((1S)-2-methoxy-1-(4-(trifluoromethoxy)phenyl)ethyl)-6-oxo-2-(pyrrolidin-1-yl)-1,6-dihydropyrimidine-4-carboxamide] | 102 |
| COC[C@@H](NC(=O)c1cc(=O)[nH]c(N2CC(OC)C2)n1)c1ccc(OC(F)(F)F)cc1 [Example 55, 2-(3-methoxyazetidin-1-yl)-N-((1S)-2-methoxy-1-(4-(trifluoromethoxy)phenyl)ethyl)-6-oxo-1,6-dihydropyrimidine-4-carboxamide] | 98 |
| COC[C@@H](NC(=O)c1cc(=O)[nH]c(N2CCCC2)n1)c1ccc(OC(F)(F)F)c(F)c1 [Example 61, N-((1S)-1-(3-fluoro-4-(trifluoromethoxy)phenyl)-2-methoxyethyl)-6-oxo-2-(pyrrolidin-1-yl)-1,6-dihydropyrimidine-4-carboxamide] | 98 |
| CC(C)(O)C(NC(=O)c1cc(=O)[nH]c(N2CCCC2)n1)c1ccc(OC(F)(F)F)c(F)c1 (stereo not drawn) [Example 62, N-(1-(3-fluoro-4-(trifluoromethoxy)phenyl)-2-hydroxy-2-methylpropyl)-6-oxo-2-(pyrrolidin-1-yl)-1,6-dihydropyrimidine-4-carboxamide] | 99 |
| COC[C@@H](NC(=O)c1cc(=O)[nH]c(N2CC[C@H](OC(C)C)C2)n1)c1ccc(OC(F)(F)F)cc1 [Example 67, 2-((3S)-3-isopropoxypyrrolidin-1-yl)-N-((1S)-2-methoxy-1-(4-(trifluoromethoxy)phenyl)ethyl)-6-oxo-1,6-dihydropyrimidine-4-carboxamide] | 100 |
| COC[C@@H](NC(=O)c1cc(=O)[nH]c(N2CC3CC(C2)O3)n1)c1ccc(OC(F)(F)F)c(F)c1 [Example 73, N-((1S)-1-(3-fluoro-4-(trifluoromethoxy)phenyl)-2-methoxyethyl)-2-(6-oxa-3-azabicyclo[3.1.1]hept-3-yl)-6-oxo-1,6-dihydropyrimidine-4-carboxamide] | 99 |
| CCN(C)c1nc(C(=O)N[C@H](COC)c2ccc(OC(F)(F)F)c(F)c2)cc(=O)[nH]1 [Example 76, 2-(ethyl(methyl)amino)-N-((1S)-1-(3-fluoro-4-(trifluoromethoxy)phenyl)-2-methoxyethyl)-6-oxo-1,6-dihydropyrimidine-4-carboxamide] | 101 |
| COC[C@@H](NC(=O)c1cc(=O)[nH]c(C(C)(C)C)n1)c1ccc(OC(F)(F)F)c(F)c1 [Example 80, 2-tert-butyl-N-((1S)-1-(3-fluoro-4-(trifluoromethoxy)phenyl)-2-methoxyethyl)-6-oxo-1,6-dihydropyrimidine-4-carboxamide] | 94 |
| COC[C@@H](NC(=O)c1cc(=O)[nH]c(C2CC2)n1)c1ccc(OC(F)(F)F)c(F)c1 [Example 81, 2-cyclopropyl-N-((1S)-1-(3-fluoro-4-(trifluoromethoxy)phenyl)-2-methoxyethyl)-6-oxo-1,6-dihydropyrimidine-4-carboxamide] | 93 |
| COC[C@@H](NC(=O)c1cc(=O)[nH]c(C2=CCCC2)n1)c1ccc(OC(F)(F)F)c(F)c1 [Example 83, 2-(cyclopent-1-en-1-yl)-N-((1S)-1-(3-fluoro-4-(trifluoromethoxy)phenyl)-2-methoxyethyl)-6-oxo-1,6-dihydropyrimidine-4-carboxamide] | 98 |
| COC[C@@H](NC(=O)c1cc(=O)[nH]c(-c2ccccc2)n1)c1ccc(OC(F)(F)F)c(F)c1 [Example 87, N-((1S)-1-(3-fluoro-4-(trifluoromethoxy)phenyl)-2-methoxyethyl)-6-oxo-2-phenyl-1,6-dihydropyrimidine-4-carboxamide] | 98 |
| COC[C@@H](NC(=O)c1cc(=O)[nH]c(-c2ccccn2)n1)c1ccc(OC(F)(F)F)c(F)c1 [Example 88, N-((1S)-1-(3-fluoro-4-(trifluoromethoxy)phenyl)-2-methoxyethyl)-6-oxo-2-(pyridin-2-yl)-1,6-dihydropyrimidine-4-carboxamide] | 92 |
| CC(C)(C)c1nc(C(=O)N[C@@H](c2ccc(OC(F)(F)F)c(F)c2)C(C)(C)O)cc(=O)[nH]1 [Example 95, 2-tert-butyl-N-(1-(3-fluoro-4-(trifluoromethoxy)phenyl)-2-hydroxy-2-methylpropyl)-6-oxo-1,6-dihydropyrimidine-4-carboxamide] | 104 |
| CC(C)(O)[C@@H](NC(=O)c1cc(=O)[nH]c(C2CC2)n1)c1ccc(OC(F)(F)F)c(F)c1 [Example 96, 2-cyclopropyl-N-((1S)-1-(3-fluoro-4-(trifluoromethoxy)phenyl)-2-hydroxy-2-methylpropyl)-6-oxo-1,6-dihydropyrimidine-4-carboxamide] | 94 |
| CC(C)(O)[C@@H](NC(=O)c1cc(=O)[nH]c(-c2ccccn2)n1)c1ccc(OC(F)(F)F)c(F)c1 [Example 102, N-((1S)-1-(3-fluoro-4-(trifluoromethoxy)phenyl)-2-hydroxy-2-methylpropyl)-6-oxo-2-(pyridin-2-yl)-1,6-dihydropyrimidine-4-carboxamide] | 102 |
| COC[C@@H](NC(=O)c1cc(=O)[nH]c(C2(C)CC2)n1)c1ccc(OC(F)(F)F)c(F)c1 [Example 103, N-((1S)-1-(3-fluoro-4-(trifluoromethoxy)phenyl)-2-methoxyethyl)-2-(1-methylcyclopropyl)-6-oxo-1,6-dihydropyrimidine-4-carboxamide] | 108 |
| COC[C@@H](NC(=O)c1cc(=O)[nH]c(-c2ccc(OC)cn2)n1)c1ccc(OC(F)(F)F)c(F)c1 [Example 105, N-((1S)-1-(3-fluoro-4-(trifluoromethoxy)phenyl)-2-methoxyethyl)-2-(5-methoxypyridin-2-yl)-6-oxo-1,6-dihydropyrimidine-4-carboxamide] | 104 |
| COC[C@@H](NC(=O)c1cc(=O)[nH]c(-c2cccs2)n1)c1ccc(OC(F)(F)F)c(F)c1 [Example 107, N-((1S)-1-(3-fluoro-4-(trifluoromethoxy)phenyl)-2-methoxyethyl)-6-oxo-2-(2-thienyl)-1,6-dihydropyrimidine-4-carboxamide] | 97 |
| CC#Cc1nc(C(=O)N[C@H](COC)c2ccc(OC(F)(F)F)c(F)c2)cc(=O)[nH]1 [Example 111, N-((1S)-1-(3-fluoro-4-(trifluoromethoxy)phenyl)-2-methoxyethyl)-6-oxo-2-(prop-1-yn-1-yl)-1,6-dihydropyrimidine-4-carboxamide] | 94 |
| CC(C)(O)[C@@H](NC(=O)c1cc(=O)[nH]c(C2=CCCC2)n1)c1ccc(OC(F)(F)F)c(F)c1 [Example 114, 2-(cyclopent-1-en-1-yl)-N-((1S)-1-(3-fluoro-4-(trifluoromethoxy)phenyl)-2-hydroxy-2-methylpropyl)-6-oxo-1,6-dihydropyrimidine-4-carboxamide] | 104 |
| COC[C@@H](NC(=O)c1cc(=O)[nH]c(C2=CCCC2)n1)c1ccc(OC(F)(F)F)cc1 [Example 115, 2-(cyclopent-1-en-1-yl)-N-((1S)-2-methoxy-1-(4-(trifluoromethoxy)phenyl)ethyl)-6-oxo-1,6-dihydropyrimidine-4-carboxamide] | 100 |
| COCC(NC(=O)c1cc(=O)[nH]c(-c2ccccn2)n1)c1ccc(-n2cccc2)c(F)c1 (stereo not drawn) [Example 116, N-(1-(3-fluoro-4-(1H-pyrrol-1-yl)phenyl)-2-methoxyethyl)-6-oxo-2-(pyridin-2-yl)-1,6-dihydropyrimidine-4-carboxamide] | 99 |
| COC[C@@H](NC(=O)c1cc(=O)[nH]c(-c2ccsc2)n1)c1ccc(OC(F)(F)F)c(F)c1 [Example 120, N-((1S)-1-(3-fluoro-4-(trifluoromethoxy)phenyl)-2-methoxyethyl)-6-oxo-2-(3-thienyl)-1,6-dihydropyrimidine-4-carboxamide] | 103 |
| COC[C@@H](NC(=O)c1cc(=O)[nH]c(-c2ccco2)n1)c1ccc(OC(F)(F)F)c(F)c1 [Example 121, N-((1S)-1-(3-fluoro-4-(trifluoromethoxy)phenyl)-2-methoxyethyl)-2-(2-furyl)-6-oxo-1,6-dihydropyrimidine-4-carboxamide] | 95 |
